Results from paper PMC8346139, “Synthesis of New Tricyclic 1,2-Thiazine Derivatives with Anti-Inflammatory Activity” (International Journal of Molecular Sciences, 2021).
Entries after “also recorded” stand apart in the source; their conditions may differ.

What was measured:
ovine COX-1 = biological target: T1, ovine COX-1 (Ovis aries, UniProt P05979); assay: COX colorimetric inhibitor screening assay, COX-1
T1 sequence (P05979 25-600): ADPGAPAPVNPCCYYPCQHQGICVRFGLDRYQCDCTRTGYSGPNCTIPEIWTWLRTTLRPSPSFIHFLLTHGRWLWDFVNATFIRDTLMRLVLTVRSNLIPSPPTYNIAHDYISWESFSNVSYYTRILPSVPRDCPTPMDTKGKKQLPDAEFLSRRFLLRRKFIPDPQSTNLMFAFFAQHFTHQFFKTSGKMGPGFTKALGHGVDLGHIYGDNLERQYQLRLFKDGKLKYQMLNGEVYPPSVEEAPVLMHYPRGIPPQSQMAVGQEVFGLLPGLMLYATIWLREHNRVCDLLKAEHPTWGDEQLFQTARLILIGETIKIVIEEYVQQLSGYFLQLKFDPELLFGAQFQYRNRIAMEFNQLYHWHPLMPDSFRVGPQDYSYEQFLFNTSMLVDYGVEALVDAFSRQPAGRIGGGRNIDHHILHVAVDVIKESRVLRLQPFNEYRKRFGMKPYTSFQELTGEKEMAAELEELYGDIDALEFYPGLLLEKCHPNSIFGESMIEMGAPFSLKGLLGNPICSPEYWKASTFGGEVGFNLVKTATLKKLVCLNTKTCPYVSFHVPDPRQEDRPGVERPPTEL
Experimental: (§2) The selectivity of the compounds for COX-1 or COX-2 was assessed by calculation of the IC50 ratios.
(§3) The compounds were dissolved in ethanol to get the final concentration of 100 µM. Each tested solution of compounds was transferred into a 96-well plate in three repetitions and then incubated for 2 min at RT with prepared reagents according to the manufacturing procedure. This assay measured the peroxidase component of COXs, which is evaluated as monitoring the oxidized form of N, N, N’, N’-tetramethyl-p-phenylenediamine (TMPD). The absorbance was measured using a VariuScan microplate reader at 590 nm. The data were calculated according to 3 steps. First, the average absorbance of all the samples was determined. Second, the absorbance of the background wells was subtracted from the absorbance of 100% of the starting COX-1 and COX-2 activity and the test compound wells.

[1] = Differential scanning calorimetry (DSC) of DPPC model membranes; assay type: physicochemical; settings: pH 7.4, molar ratios 0.06–0.12
Text: To investigate the interaction of the tricyclic 1,2-thiazine derivatives (Table 1) with model membranes, we used the differential scanning calorimetry (DSC) method. As a model of the phospholipid membrane, the multibilayers made of 1,2-dipalmitoyl-n-glycero-3-phosphatidylcholine (DPPC) in a buffer solution (pH 7.4) were used.
Tris-EDTA buffer solution (pH 7.4) and 1,2-dipalmitoyl-n-glycero-3-phosphatidyl- choline (DPPC) were purchased from Sigma-Aldrich, Merck KGaA, Darmstadt, Germany. None of the compounds studied were soluble in water, so their chloroform (P.P.H. STANLAB, Lublin, Poland, analytical grade) solutions were used for calorimetric experiments.
For each sample, 2 mg of phospholipid (DPPC) were dissolved in the appropriate amount of chloroform stock solution (5 mM) of the compounds studied (the compound: DPPC molar ratios in the samples were: 0.06, 0.08, 0.10, 0.12). The solvent was then evaporated under a stream of nitrogen gas. After that, the residual solvent was evacuated under vacuum (Rotary evaporator, Büchy Poland, Warsaw, Poland) for 2 h. In this process, the phospholipid was transferred onto the dry film on the inner surface of the Eppendorf tube. Samples were hydrated by 20 μL of Tris–EDTA buffer (pH 7.4). […] Then, the samples were transferred into aluminum sample pans of the Concavus® type (Netzsch GmbH & Co., Selb, Germany) and sealed. A pan of the same type, filled with 20 μL of Tris–EDTA buffer (pH 7.4), was employed as a reference. Measurements of the DPPC main phase transition were performed using the heat-flow measurement method at a heating rate of 1 °C per minute over a temperature range of 30–50 °C in a nitrogen dynamic atmosphere (25 mL/min). Data were analyzed off-line using Netzsch Proteus® 7.1.0 (Netzsch GmbH & Co., Selb, Germany) analysis software. The transition enthalpies were stated in [J/g]. The measured heat was normalized per gram of lipid. […] All samples were weighed on a Sartorius CPA225D-0CE analytical balance (Sartorius AG, Gottingen, Germany) with a resolution of 0.01 mg.

human recombinant COX-2 = biological target: T2, human recombinant COX-2 (Homo sapiens, UniProt P35354); assay: COX colorimetric inhibitor screening assay, COX-2; settings: for Ratio: COX-2/COX-1: ratio of IC50 values COX-2/COX-1; for COX-2/COX-1 selectivity compared with meloxicam: comparison of IC50 ratios; for COX-2 inhibition effect compared with meloxicam: comparison of IC50 values
T2 sequence (P35354 18-604): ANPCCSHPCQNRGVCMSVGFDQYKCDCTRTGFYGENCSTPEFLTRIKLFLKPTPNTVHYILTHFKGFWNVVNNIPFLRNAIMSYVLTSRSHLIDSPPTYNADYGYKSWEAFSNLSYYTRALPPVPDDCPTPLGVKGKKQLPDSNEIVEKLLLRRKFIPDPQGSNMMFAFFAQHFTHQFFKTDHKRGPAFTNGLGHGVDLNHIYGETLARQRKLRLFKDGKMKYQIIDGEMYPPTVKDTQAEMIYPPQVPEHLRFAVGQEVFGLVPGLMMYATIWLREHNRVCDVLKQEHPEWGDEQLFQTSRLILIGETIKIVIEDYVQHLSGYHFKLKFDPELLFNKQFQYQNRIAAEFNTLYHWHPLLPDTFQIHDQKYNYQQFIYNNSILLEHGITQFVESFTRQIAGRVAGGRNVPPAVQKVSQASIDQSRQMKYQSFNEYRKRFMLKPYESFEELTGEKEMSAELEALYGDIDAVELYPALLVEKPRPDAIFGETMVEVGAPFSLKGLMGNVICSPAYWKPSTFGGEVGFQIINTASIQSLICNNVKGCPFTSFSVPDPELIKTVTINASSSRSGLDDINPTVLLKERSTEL
Experimental: as §2, §3

NHDF cells [2] = assay: MTT viability assay; assay type: cell-based, Human; settings: 24 h incubation; for Mitochondrial activity of NHDF cells: 10 µM and 50 µM, compared to control; for Mitochondrial activity of NHDF cells / Cytotoxic effect on NHDF cells: MTT; for Cytotoxic effect on NHDF cells: 10, 50 and 100 µM
Experimental: The viability of the Normal Human Dermal Fibroblasts (NHDF) cells was assessed after 24 h incubation with 10, 50 and 100 µM tested compounds in MTT assay. […] The less than 30% decrease in culture viability was observed only in concentration of 100 µM for compound 6b in comparison to control (i.e., no cytotoxic potential of tested compound). […] Thus, all new compounds were directed to further research.
The study was carried out using the NHDF cell line obtained from ATCC (Manassas, VA, USA). These cells are commonly used to determine the cytotoxicity of new compounds. Cells were cultured at 37 °C in a humidified 5% CO2/95% air atmosphere incubator and passaged twice a week.
(§1) The 1,2-thiazine derivatives were dissolved in DMSO to a stock concentration of 10 mM. All prepared stock solutions were stored at −20 °C for up to 6 months. For the experiment, the compounds tested were used in the concentration range of 10, 50 and 100 μM. […] The abovementioned tested compounds were tested on NHDF cells.
The viability of the cells was assessed after 24 h incubation with 10–100 µM tested compounds in MTT assay. After incubation, cell culture with a 1 mg/mL solution of MTT for 2 h at 37 °C, the formazan crystals were dissolved in isopropanol. The plates were then shaken for 30 min, and the absorbance was measured at 570 nm using VariuScan microplate reader.

NHDF cells [3] = assay: DCF-DA assay of reactive oxygen species (ROS); assay type: cell-based, Human; settings: 1 h treatment; 10, 50 and 100 µM; compared to control
Experimental: The level of reactive oxygen species (ROS) was evaluated in DCF-DA assay and nitric oxide (NO) in Griess assay, on NHDF cells. […] This increase may be due to the normal cellular activity due to the increased cell numbers, probably resulting from proliferation.
as §1
Levels of reactive oxygen species (ROS) and nitric oxide (NO) were evaluated in DCF-DA (2′,7′-dichlorofluorescein diacetate) and Griess (cat. No. G7921; Thermo Fisher Scientific, Waltham, MA, USA) assays, respectively. In these assays, the cells were treated with tested compounds only for 1 h. After that time, the 50 µL of supernatant were transferred into new plates to assess the NO level. The remaining supernatant was removed, the cell culture was washed, and the 25 µM DCF-DA solution was added for 1 h at 37 °C. […] The plates with DCF-DA solution were analyzed with the Varioskan LUX microplate reader (λex = 485 nm and λem = 535 nm). The NO level was analyzed by the measurement of the absorbance at 548 nm using VariuScan microplate reader.

Row | Structure (SMILES) | melting point | IC50 (ovine COX-1) | Effect on DPPC gel-liquid crystalline phase transition parameters (Tm, T½, ΔH) [1] | IC50 (human recombinant COX-2) | Ratio: COX-2/COX-1 (human recombinant COX-2) | Decrease in culture viability (NHDF cells [2]; 100 µM, in comparison to control) | Mitochondrial activity of NHDF cells (NHDF cells [2]) | Cytotoxic effect on NHDF cells (NHDF cells [2]) | COX-2/COX-1 selectivity compared with meloxicam (human recombinant COX-2) | COX-2 inhibition effect compared with meloxicam (human recombinant COX-2) | Level of reactive oxygen species (ROS) (NHDF cells [3])
1 | Cc1ccc(C2=C3C(=O)c4ccccc4S(=O)(=O)N3CCCO2)cc1 [Compound 6d, 7,7-dioxo-1-(p-tolyl)-4,5-dihydro-3H-[1,4]oxazepino[4,3-b][1,2]benzothiazin-12-one] | 204 to 206 °C | 126 µM | most pronounced effects | 92.9 µM | 0.74 |  |  |  |  |  | 
2 | O=C1C2=C(c3ccc(Br)cc3)OCCCN2S(=O)(=O)c2ccccc21 [Compound 6b, 1-(4-bromophenyl)-7,7-dioxo-4,5-dihydro-3H-[1,4]oxazepino[4,3-b][1,2]benzothiazin-12-one] |  | 86.9 µM |  | 95.1 µM |  | less than 30% |  |  |  |  | 
3 | O=C(C1=C(O)c2ccccc2S(=O)(=O)N1)c1ccc(Cl)cc1 [Compound 4c] |  | 89 µM |  | 55.9 µM | 0.63 |  | statistically significant increase | no cytotoxic effect was observed | higher COX-2/COX-1 selectivity than for meloxicam | stronger COX-2 inhibition effect than the meloxicam | 
4 | Cc1ccc(C(=O)C2=C(O)c3ccccc3S(=O)(=O)N2)cc1 [Compound 4d] |  | 89.3 µM |  | 55.3 µM | 0.62 |  |  |  | higher COX-2/COX-1 selectivity than for meloxicam | stronger COX-2 inhibition effect than the meloxicam | 
5 | O=C1C2=C(c3ccccc3)OCCN2S(=O)(=O)c2ccccc21 [Compound 5, 6,6-dioxo-1-phenyl-3,4-dihydro-[1,4] oxazino [4,3-b][1,2]benzothiazin-11-one] | 182 to 183 °C | 66.1 µM |  | 56.9 µM | 0.86 |  |  |  |  | stronger COX-2 inhibition effect than the meloxicam | 
6 | O=C(C1=C(O)c2ccccc2S(=O)(=O)N1)c1ccccc1 [Compound 4a] |  | 91.2 µM |  | 54.6 µM | 0.6 |  | statistically significant increase | no cytotoxic effect was observed | higher COX-2/COX-1 selectivity than for meloxicam | stronger COX-2 inhibition effect than the meloxicam | statistically significant increase
7 | O=C1C2=C(c3ccccc3)OCCCN2S(=O)(=O)c2ccccc21 [Compound 6a, 7,7-dioxo-1-phenyl-4,5-dihydro-3H-[1,4]oxazepino[4,3-b][1,2]benzothiazin-12-one] | 171 to 172 °C | 106 µM |  | 89.9 µM | 0.85 |  |  |  |  |  | 
8 | O=C1C2=C(c3ccc(Cl)cc3)OCCCN2S(=O)(=O)c2ccccc21 [Compound 6c, 1-(4-chlorophenyl)-7,7-dioxo-4,5-dihydro-3H-[1,4]oxazepino[4,3-b][1,2]benzothiazin-12-one] | 168 to 170 °C | 89.8 µM | most pronounced effects | 94.1 µM | 1.05 |  | statistically significant increase |  |  |  | 
9 | COc1ccc(C2=C3C(=O)c4ccccc4S(=O)(=O)N3CCCO2)cc1 [Compound 6e, 1-(4-methoxyphenyl)-7,7-dioxo-4,5-dihydro-3H-[1,4]oxazepino[4,3-b][1,2]benzothiazin-12-one] | 144 to 145 °C | 115 µM | most pronounced effects | 56.9 µM | 0.49 |  |  |  | higher COX-2/COX-1 selectivity than for meloxicam; also recorded: most selective inhibitor of COX-2 | stronger COX-2 inhibition effect than the meloxicam | 
10 | O=C1C2=C(c3ccccc3)OCCCCN2S(=O)(=O)c2ccccc21 [Compound 7, 8,8-dioxo-1-phenyl-3,4,5,6-tetrahydro-[1,4]oxazocino[4,3-b][1,2]benzothiazin-13-one] | 198 to 201 °C | 86.1 µM |  | 54 µM | 0.63 |  |  |  | higher COX-2/COX-1 selectivity than for meloxicam | stronger COX-2 inhibition effect than the meloxicam | 
